According to patent publication US10800792B2, “Inhibitors of Bruton's tyrosine kinase and method of their use” (JANSSEN PHARMACEUTICA NV, priority 2015, dated 2020):

Biological target: unphosphorylated-BTK kinase domain (UP-BTK), GST-tagged human BTK (389-659aa) (Homo sapiens (Human), UniProt Q06187)
Experiment: BTK kinase Lanthascreen binding assay
Conditions: pIC50 = negative log of the IC50 in molar, 60 minutes incubation, 50 nM Tracer 236; for IC50: read-out: BTK_I_binding pIC50 (converted)
Outline: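 Values are pIC50, i.e. negative log of IC50 in molar, derived from concentration–response fitting. Each compound competes with a fluorescently labelled tracer for the unphosphorylated kinase domain.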

Chain of unphosphorylated-BTK kinase domain (UP-BTK), GST-tagged human BTK (389-659aa) (Q06187 389-659): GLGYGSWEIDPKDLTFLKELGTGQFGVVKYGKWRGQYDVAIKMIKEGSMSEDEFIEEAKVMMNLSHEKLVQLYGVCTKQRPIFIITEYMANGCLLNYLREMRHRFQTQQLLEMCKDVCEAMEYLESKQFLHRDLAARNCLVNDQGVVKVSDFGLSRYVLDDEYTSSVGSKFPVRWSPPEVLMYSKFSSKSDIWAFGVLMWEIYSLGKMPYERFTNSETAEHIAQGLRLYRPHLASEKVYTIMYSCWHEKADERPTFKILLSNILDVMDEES

| BTK_I_binding pIC50 | Compound | IC50 [nM] |
| --- | --- | --- |
| 7.6 | COCCC(=O)N1C[C@@H](F)[C@@H](NC(=O)c2sc3nccc4c3c2NC(=O)N4c2ccc(Oc3ccccc3)cc2C)C1 [Example 94, N-((3S,4R)-4-Fluoro-1-(3-methoxypropanoyl)pyrrolidin-3-yl)-5-(2-methyl-4-phenoxyphenyl)-4-oxo-4,5-dihydro-3H-1-thia-3,5,8-triazaacenaphthylene-2-carboxamide] |  |
| 7.4 | COCC(=O)N1CCC[C@@H](NC(=O)c2sc3nccc4c3c2NC(=O)N4c2ccc(Oc3ccccc3)cc2C)C1 [Example 95, (R)—N-(1-(2-Methoxyacetyl)piperidin-3-yl)-5-(2-methyl-4-phenoxyphenyl)-4-oxo-4,5-dihydro-3H-1-thia-3,5,8-triazaacenaphthylene-2-carboxamide] |  |
| 6.9 | Cc1cc(Oc2ccccc2)ccc1N1C(=O)Nc2c(C(=O)NC3CCCCN(C#N)C3)sc3nccc1c23 (centres unmarked) [Example 97, N-(1-Cyanoazepan-3-yl)-5-(2-methyl-4-phenoxyphenyl)-4-oxo-4,5-dihydro-3H-1-thia-3,5,8-triazaacenaphthylene-2-carboxamide] |  |
| 6.8 | Cc1cc(Oc2ccccc2)ccc1N1C(=O)Nc2c(C(=O)N[C@@H]3CCCN(C(C)C)C3)sc3nccc1c23 [Example 101, (R)—N-(1-Isopropylpiperidin-3-yl)-5-(2-methyl-4-phenoxyphenyl)-4-oxo-4,5-dihydro-3H-1-thia-3,5,8-triazaacenaphthylene-2-carboxamide] |  |
| 7.5 | Cc1cc(OC(C)C)ccc1N1C(=O)Nc2c(C(=O)N[C@@H]3CCCN(C(=O)/C(C#N)=C/C4CC4)C3)sc3nccc1c23 [Example 102, (R,E)-N-(1-(2-Cyano-3-cyclopropylacryloyl)piperidin-3-yl)-5-(4-isopropoxy-2-methylphenyl)-4-oxo-4,5-dihydro-3H-1-thia-3,5,8-triazaacenaphthylene-2-carboxamide] |  |
| 6.7 | Cc1cc(Oc2ccccc2)ccc1N1C(=O)Nc2c(C(=O)NC3CCC(C)N(C)C3)sc3nccc1c23 (centres unmarked) [Example 103, N-(1,6-Dimethylpiperidin-3-yl)-5-(2-methyl-4-phenoxyphenyl)-4-oxo-4,5-dihydro-3H-1-thia-3,5,8-triazaacenaphthylene-2-carboxamide] |  |
| 7.7 | Cc1cc(Oc2ccccc2)ccc1N1C(=O)Nc2c(C(=O)N[C@@H]3CCN(C(=O)CCS(C)(=O)=O)C3)sc3nccc1c23 [Example 104, (R)-5-(2-Methyl-4-phenoxyphenyl)-N-(1-(3-(methylsulfonyl)propanoyl)pyrrolidin-3-yl)-4-oxo-4,5-dihydro-3H-1-thia-3,5,8-triazaacenaphthylene-2-carboxamide] |  |
| 6.9 | C/C=C/C(=O)N1CCC[C@@H](NC(=O)c2sc3nccc4c3c2NC(=O)N4c2ccc(Oc3ccccc3)cc2C)C1 [Example 105, (R,E)-N-(1-(But-2-enoyl)piperidin-3-yl)-5-(2-methyl-4-phenoxyphenyl)-4-oxo-4,5-dihydro-3H-1-thia-3,5,8-triazaacenaphthylene-2-carboxamide] |  |
| 7.3 | CNCCC(=O)N1CCC[C@@H](NC(=O)c2sc3nccc4c3c2NC(=O)N4c2ccc(Oc3ccccc3)cc2C)C1 [Example 106, (R)-5-(2-Methyl-4-phenoxyphenyl)-N-(1-(3-(methylamino)propanoyl)piperidin-3-yl)-4-oxo-4,5-dihydro-3H-1-thia-3,5,8-triazaacenaphthylene-2-carboxamide] |  |
| 7.5 | O=C(N[C@@H]1CCCNC1)c1sc2nccc3c2c1NC(=O)N3c1ccc(Oc2ccccc2)cc1F [Example 107, (R)-5-(2-Fluoro-4-phenoxyphenyl)-4-oxo-N-(piperidin-3-yl)-4,5-dihydro-3H-1-thia-3,5,8-triazaacenaphthylene-2-carboxamide] |  |
| 7.5 | Cc1cc(Oc2ccccc2)ccc1N1C(=O)Nc2c(C(=O)N[C@@H]3CCOC3)sc3nccc1c23 [Example 108, (R)-5-(2-Methyl-4-phenoxyphenyl)-4-oxo-N-(tetrahydrofuran-3-yl)-4,5-dihydro-3H-1-thia-3,5,8-triazaacenaphthylene-2-carboxamide] |  |
| 7.2 | C=CC(=O)N1CC(NC(=O)c2sc3nccc4c3c2NC(=O)N4c2ccc(Oc3ccccc3)cc2C)C1 [Example 109, N-(1-Acryloylazetidin-3-yl)-5-(2-methyl-4-phenoxyphenyl)-4-oxo-4,5-dihydro-3H-1-thia-3,5,8-triazaacenaphthylene-2-carboxamide] |  |
|  | COc1ccc(N2C(=O)Nc3c(C(=O)N[C@@H]4CCCN(C(=O)C=[13CH2])C4)sc4nccc2c34)c(C)c1 [Example 110, (R)—N-(1-^13C-Acryloylpiperidin-3-yl)-5-(4-methoxy-2-methylphenyl)-4-oxo-4,5-dihydro-3H-1-thia-3,5,8-triazaacenaphthylene-2-carboxamide] | 158 |
|  | COC[C@@H](N)C(=O)N1CCC[C@@H](NC(=O)c2sc3nccc4c3c2NC(=O)N4c2ccc(Oc3ccccc3)cc2C)C1 [Example 111, N—((R)-1-((R)-2-Amino-3-methoxypropanoyl)piperidin-3-yl)-5-(2-methyl-4-phenoxyphenyl)-4-oxo-4,5-dihydro-3H-1-thia-3,5,8-triazaacenaphthylene-2-carboxamide] | 63.1 |
| 7.3 | Cc1c(N2C(=O)Nc3c(C(=O)N[C@@H]4CCCN(C(=O)CCS(C)(=O)=O)C4)sc4nccc2c34)ccc(Oc2ccccc2)c1F [Example 113, (R)-5-(3-Fluoro-2-methyl-4-phenoxyphenyl)-N-(1-(3-(methylsulfonyl)propanoyl)piperidin-3-yl)-4-oxo-4,5-dihydro-3H-1-thia-3,5,8-triazaacenaphthylene-2-carboxamide] |  |
| 7.3 | Cc1c(N2C(=O)Nc3c(C(=O)N[C@@H]4CCCN(C(=O)CO)C4)sc4nccc2c34)ccc(Oc2ccccc2)c1F [Example 114, (R)-5-(3-Fluoro-2-methyl-4-phenoxyphenyl)-N-(1-(2-hydroxyacetyl)piperidin-3-yl)-4-oxo-4,5-dihydro-3H-1-thia-3,5,8-triazaacenaphthylene-2-carboxamide] |  |
| 7.4 | COCC(=O)N1CCC[C@@H](NC(=O)c2sc3nccc4c3c2NC(=O)N4c2ccc(Oc3ccccc3)c(F)c2C)C1 [Example 115, (R)-5-(3-Fluoro-2-methyl-4-phenoxyphenyl)-N-(1-(2-methoxyacetyl)piperidin-3-yl)-4-oxo-4,5-dihydro-3H-1-thia-3,5,8-triazaacenaphthylene-2-carboxamide] |  |
| 7.2 | C/C=C\C(=O)N1CCC[C@@H](NC(=O)c2sc3nccc4c3c2NC(=O)N4c2ccc(Oc3ccccc3)cc2C)C1 [Example 116, (R,Z)—N-(1-(But-2-enoyl)piperidin-3-yl)-5-(2-methyl-4-phenoxyphenyl)-4-oxo-4,5-dihydro-3H-1-thia-3,5,8-triazaacenaphthylene-2-carboxamide] |  |
| 6.9 | Cc1cc(Oc2ccccc2)ccc1N1C(=O)Nc2c(C(=O)N[C@@H]3CCN(C)C3)sc3nccc1c23 [Example 117, (R)-5-(2-Methyl-4-phenoxyphenyl)-N-(1-methylpyrrolidin-3-yl)-4-oxo-4,5-dihydro-3H-1-thia-3,5,8-triazaacenaphthylene-2-carboxamide] |  |
| 6.9 | Cc1cc(Oc2ccccc2)ccc1N1C(=O)Nc2c(C(=O)N[C@@H]3CCN(C(C)C)C3)sc3nccc1c23 [Example 118, (R)—N-(1-Isopropylpyrrolidin-3-yl)-5-(2-methyl-4-phenoxyphenyl)-4-oxo-4,5-dihydro-3H-1-thia-3,5,8-triazaacenaphthylene-2-carboxamide] |  |
| 6.6 | C=CC(=O)N1CC[C@@H](NC(=O)c2sc3nccc4c3c2NC(=O)N4c2ccc(CC)cc2C)C1 [Example 119, (R)—N-(1-Acryloylpyrrolidin-3-yl)-5-(4-ethyl-2-methylphenyl)-4-oxo-4,5-dihydro-3H-1-thia-3,5,8-triazaacenaphthylene-2-carboxamide] |  |
| 6.7 | C=CC(=O)N1CCC[C@@H](NC(=O)c2sc3nccc4c3c2NC(=O)N4c2ccc(Oc3ccccc3)nn2)C1 [Example 121, (R)—N-(1-Acryloylpiperidin-3-yl)-4-oxo-5-(6-phenoxypyridazin-3-yl)-4,5-dihydro-3H-1-thia-3,5,8-triazaacenaphthylene-2-carboxamide] |  |
| 7.4 | COC[C@H](O)C(=O)N1CCC[C@@H](NC(=O)c2sc3nccc4c3c2NC(=O)N4c2ccc(Oc3ccccc3)cc2C)C1 [Example 122, N—((R)-1-((S)-2-Hydroxy-3-methoxypropanoyl)piperidin-3-yl)-5-(2-methyl-4-phenoxyphenyl)-4-oxo-4,5-dihydro-3H-1-thia-3,5,8-triazaacenaphthylene-2-carboxamide] |  |
| 6.9 | Cc1cc(Oc2ccccc2)ccc1N1C(=O)Nc2c(C(=O)NC3CCOCC3)sc3nccc1c23 [Example 123, 5-(2-Methyl-4-phenoxyphenyl)-4-oxo-N-(tetrahydro-2H-pyran-4-yl)-4,5-dihydro-3H-1-thia-3,5,8-triazaacenaphthylene-2-carboxamide] |  |
| 7.4 | Cc1cc(Oc2ccccc2)ccc1N1C(=O)Nc2c(C(=O)N[C@@H]3CCCN(C(=O)CO)C3)sc3nccc1c23 [Example 124, (R)—N-(1-(2-Hydroxyacetyl)piperidin-3-yl)-5-(2-methyl-4-phenoxyphenyl)-4-oxo-4,5-dihydro-3H-1-thia-3,5,8-triazaacenaphthylene-2-carboxamide] |  |

| Compound | BTK_I_binding pIC50 | IC50 [nM] |
| --- | --- | --- |
| COC[C@H](N)C(=O)N1CCC[C@@H](NC(=O)c2sc3nccc4c3c2NC(=O)N4c2ccc(Oc3ccccc3)cc2C)C1 [Example 120, N—((R)-1-((S)-2-Amino-3-methoxypropanoyl)piperidin-3-yl)-5-(2-methyl-4-phenoxyphenyl)-4-oxo-4,5-dihydro-3H-1-thia-3,5,8-triazaacenaphthylene-2-carboxamide] | 7.1 |  |
